The record followed here is ChEMBL document CHEMBL4823288, “Discovery and Optimization of a Series of Benzofuran Selective ERAP1 Inhibitors: Biochemical and In Silico Studies” (ACS Med Chem Lett, 2021).

The target in data set [1] is Aminopeptidase N (Homo sapiens, UniProt P15144). Put plainly: Inhibition of APN (unknown origin) using Ala-AMC as substrate.
The target of data set [2] is T1, Endoplasmic reticulum aminopeptidase 1 (Homo sapiens, UniProt Q9NZ08).
Description: Inhibition of wild type ERAP1 (unknown origin) using L-Rho-Succ-FKARKF as substrate preincubated for 15 mins followed by substrate addition and measured after 20 mins by flourescence assay
Data set [3] concerns the target Endoplasmic reticulum aminopeptidase 2 (Homo sapiens, UniProt Q6P179). Put plainly: Inhibition of ERAP2 (unknown origin) using Arg-AMC as substrate.
The target of data set [4] is T1, Endoplasmic reticulum aminopeptidase 1. The following applies: dose 10.0 µM, time 30.0 min.
Data set [5] is described as follows: Permeability of compound across apical to basolateral side in human Caco2 cells. The data set is classed as ADME, cell-based. The following applies: Caco-2, read-out: permeability.
Data set [6] deals with T1, Endoplasmic reticulum aminopeptidase 1. Nature of the data set: Inhibition of ERAP1 (unknown origin) using L-Rho-Succ-FKARKF as substrate.
Data set [7] shares this target. Put plainly: Inhibition of ERAP1 (unknown origin) using L-Rho-(D)-Q as substrate.
Data set [8] shares this target. Nature of the data set: Inhibition of ERAP1 (unknown origin) using L-Rho-Succ-AFKARKF as substrate.
The target of data set [9] is T2, Cytochrome P450 3A4 (Homo sapiens, UniProt P08684). Put plainly: Inhibition of CYP3A4 (unknown origin) using testosterone as substrate. Format: ADME.
Data set [10] has as its target T2, Cytochrome P450 3A4. Nature of the data set: Inhibition of CYP3A4 (unknown origin) using midazolam as substrate. The data set is classed as ADME.
Data set [11] in a line: Microsomal stability in rat liver microsomes assessed as intrinsic clearance. Format: ADME, Microsome. The note with it: read-out: CLH. In general terms: Liver microsomes are a subcellular fraction often used to study metabolism.
Data set [12] in a line: Stability in human hepatocytes assessed as intrinsic clearance. The data set is classed as ADME, cell-based, Hepatocyte.
Data set [13] in a line: Microsomal stability in human liver microsomes assessed as intrinsic clearance. The note with it: read-out: CLH. Format: ADME, Microsome.
A short description of data set [14]: Microsomal stability in mouse liver microsomes assessed as intrinsic clearance. The following applies: read-out: CLH. The data set is classed as ADME, Microsome.
Substrate in data set [15]: CC(C)C[C@H](N)C(=O)Nc1ccc2c(c1)Oc1cc(NC(=O)[C@@H](CCC(N)=O)N[C@@H](C)C(=O)N[C@@H](Cc3ccccc3)C(=O)N[C@@H](CCCCN)C(=O)N[C@@H](C)C(=O)N[C@@H](CCCNC(=N)N)C(=O)N[C@@H](CCCCN)C(=O)N[C@@H](Cc3ccccc3)C(=O)O)ccc1C21OC(=O)c2ccccc21
The following applies: Homo sapiens.

Substrate in data set [16]: CC(C)C[C@H](N)C(=O)Nc1ccc2c(c1)Oc1cc(NC(=O)[C@@H](CCC(N)=O)N[C@@H](CCCCN)C(=O)N[C@@H](C)C(=O)N[C@@H](CCCNC(=N)N)C(=O)N[C@@H](CCCCN)C(=O)N[C@@H](Cc3ccccc3)C(=O)O)ccc1C21OC(=O)c2ccccc21
The following applies: Homo sapiens.
Description: Inhibition of ERAP1 (unknown origin) using L-Rho-Succ-KARKF as substrate

Substrate in data set [17]: CC(C)C[C@H](N)C(=O)Nc1ccc2c(c1)Oc1cc(NC(=O)[C@@H](CCC(N)=O)N[C@@H](Cc3ccccc3)C(=O)N[C@@H](CCCCN)C(=O)N[C@@H](C)C(=O)N[C@@H](CCCNC(=N)N)C(=O)N[C@@H](CCCCN)C(=O)N[C@@H](Cc3ccccc3)C(=O)O)ccc1C21OC(=O)c2ccccc21
The following applies: Homo sapiens.

Substrate in data set [18]: CC(C)C[C@H](N)C(=O)Nc1ccc2c(c1)Oc1cc(NC(=O)[C@H](N)CCC(N)=O)ccc1C21OC(=O)c2ccccc21
The note with it: Homo sapiens.

Bounds are passed on as bounds.

Sequence of Endoplasmic reticulum aminopeptidase 2 (Q6P179 whole entry): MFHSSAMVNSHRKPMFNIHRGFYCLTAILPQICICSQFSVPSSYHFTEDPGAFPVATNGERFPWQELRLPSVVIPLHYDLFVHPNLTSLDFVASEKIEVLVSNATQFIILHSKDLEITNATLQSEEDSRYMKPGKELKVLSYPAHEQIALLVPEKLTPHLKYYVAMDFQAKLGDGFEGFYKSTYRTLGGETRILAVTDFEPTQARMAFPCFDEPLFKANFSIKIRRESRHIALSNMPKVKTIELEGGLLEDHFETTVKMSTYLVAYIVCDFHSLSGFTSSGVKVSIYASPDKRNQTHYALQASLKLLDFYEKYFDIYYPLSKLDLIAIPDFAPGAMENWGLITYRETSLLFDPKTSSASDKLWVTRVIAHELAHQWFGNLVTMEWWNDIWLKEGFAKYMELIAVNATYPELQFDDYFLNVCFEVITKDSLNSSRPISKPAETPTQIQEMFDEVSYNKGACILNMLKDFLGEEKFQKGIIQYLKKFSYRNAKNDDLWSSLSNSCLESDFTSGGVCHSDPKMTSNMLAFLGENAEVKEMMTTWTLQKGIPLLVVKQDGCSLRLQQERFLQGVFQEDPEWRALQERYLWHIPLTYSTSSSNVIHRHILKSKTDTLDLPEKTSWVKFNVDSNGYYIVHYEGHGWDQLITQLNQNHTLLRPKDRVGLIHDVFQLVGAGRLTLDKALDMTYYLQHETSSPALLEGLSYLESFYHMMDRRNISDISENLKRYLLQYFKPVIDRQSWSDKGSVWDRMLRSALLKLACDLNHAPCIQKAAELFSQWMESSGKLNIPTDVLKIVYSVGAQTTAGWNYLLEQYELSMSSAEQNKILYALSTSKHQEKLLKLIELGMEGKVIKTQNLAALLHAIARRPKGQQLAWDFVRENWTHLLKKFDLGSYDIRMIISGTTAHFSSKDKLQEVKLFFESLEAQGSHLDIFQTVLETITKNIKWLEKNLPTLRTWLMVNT
Sequence of Aminopeptidase N (P15144 whole entry): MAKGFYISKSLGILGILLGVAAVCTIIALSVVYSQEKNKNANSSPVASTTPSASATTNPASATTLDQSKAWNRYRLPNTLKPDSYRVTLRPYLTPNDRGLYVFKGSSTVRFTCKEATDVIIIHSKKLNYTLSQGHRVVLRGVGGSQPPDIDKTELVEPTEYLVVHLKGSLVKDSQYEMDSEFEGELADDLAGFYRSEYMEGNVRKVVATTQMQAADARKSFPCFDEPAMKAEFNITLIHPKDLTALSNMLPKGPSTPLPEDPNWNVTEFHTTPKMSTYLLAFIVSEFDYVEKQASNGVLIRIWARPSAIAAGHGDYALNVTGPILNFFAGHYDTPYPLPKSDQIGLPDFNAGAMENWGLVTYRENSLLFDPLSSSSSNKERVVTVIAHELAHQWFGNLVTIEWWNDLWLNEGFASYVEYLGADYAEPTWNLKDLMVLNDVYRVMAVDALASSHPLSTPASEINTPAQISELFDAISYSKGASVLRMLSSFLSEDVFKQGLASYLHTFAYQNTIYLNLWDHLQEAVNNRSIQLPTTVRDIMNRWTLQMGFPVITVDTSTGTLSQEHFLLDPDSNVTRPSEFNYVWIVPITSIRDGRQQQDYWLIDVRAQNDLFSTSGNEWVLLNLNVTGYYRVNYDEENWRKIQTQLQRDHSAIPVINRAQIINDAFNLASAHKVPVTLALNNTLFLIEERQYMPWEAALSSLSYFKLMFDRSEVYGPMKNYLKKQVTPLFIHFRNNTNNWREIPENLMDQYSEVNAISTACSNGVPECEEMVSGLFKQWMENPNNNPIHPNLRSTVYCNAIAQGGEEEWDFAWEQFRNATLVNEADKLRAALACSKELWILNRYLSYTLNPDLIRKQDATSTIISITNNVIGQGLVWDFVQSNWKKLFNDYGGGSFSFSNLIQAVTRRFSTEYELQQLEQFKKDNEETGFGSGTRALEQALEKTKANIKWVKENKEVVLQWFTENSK
T2 sequence (P08684 whole entry): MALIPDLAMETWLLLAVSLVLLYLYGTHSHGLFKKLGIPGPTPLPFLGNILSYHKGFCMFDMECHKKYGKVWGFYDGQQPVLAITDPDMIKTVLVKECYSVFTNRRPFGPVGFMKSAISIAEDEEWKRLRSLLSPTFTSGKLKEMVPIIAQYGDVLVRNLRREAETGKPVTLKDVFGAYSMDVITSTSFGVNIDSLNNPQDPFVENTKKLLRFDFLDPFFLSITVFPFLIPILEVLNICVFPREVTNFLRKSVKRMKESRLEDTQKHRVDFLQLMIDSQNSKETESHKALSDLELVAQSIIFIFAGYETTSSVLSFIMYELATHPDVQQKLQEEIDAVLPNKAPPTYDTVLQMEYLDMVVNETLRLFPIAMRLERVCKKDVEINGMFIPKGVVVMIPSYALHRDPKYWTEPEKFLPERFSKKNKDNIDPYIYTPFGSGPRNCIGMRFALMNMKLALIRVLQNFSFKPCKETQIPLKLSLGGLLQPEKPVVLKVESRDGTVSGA

Turning to `O=C(N[C@@H](Cc1ccccc1)C(=O)O)c1cc(F)cc2cc(-c3ccc(Cl)cc3)oc12`, the IC50 in data set [1] was over 30 µM; in data set [2], 1760 nM; in data set [3], over 30 µM.

As for `O=C(NC1(C(=O)O)CCC1)c1cc(F)cc2cc(-c3ccc(C(F)(F)F)cc3)oc12`, in data set [2], inhibition was half-maximal at 1620 nM (IC50). Besides, the ΔTm in [4] worked out at 0.5 °C. Besides, the Papp A→B in [5] is 18.4 ×10⁻⁶ cm/s.

`CCC(C)(NC(=O)c1cc(F)cc2cc(-c3ccc(C(F)(F)F)cc3)oc12)C(=O)O` (configuration not stated) showed an IC50 in data set [2] of 2680 nM. That is a single-digit micromolar value.

In turn, `CC(C)C[C@H](N)C(=O)Nc1ccc2c(c1)Oc1cc(NC(=O)[C@@H](CCC(N)=O)N[C@@H](Cc3ccccc3)C(=O)N[C@@H](CCCCN)C(=O)N[C@@H](C)C(=O)N[C@@H](CCCNC(=N)N)C(=O)N[C@@H](CCCCN)C(=O)N[C@@H](Cc3ccccc3)C(=O)O)ccc1C21OC(=O)c2ccccc21` (some centres not stated) showed a Ki in data set [6] of 151 µM.

For the molecule `O=C(NC1(C(=O)O)CCCCC1)c1cc(F)cc2cc(-c3ccc(Cl)cc3)oc12`, the IC50 was over 30 µM in data set [1], 34 nM in data set [2] and over 30 µM in data set [3].

As to `O=C(NC1(C(=O)O)CCCCC1)c1cccc2c(Br)c(-c3ccc(Cl)cc3)oc12`, the figures for the 50% inhibitory concentration (IC50) in data set [1], in data set [2] and in data set [3] were over 30 µM, 151 nM and over 30 µM, respectively.

Consider `O=C(NC1(C(=O)O)CCCCC1)c1cccc2cc(-c3ccc(Cl)cc3)oc12`, for which the 50% inhibitory concentration (IC50) in data set [1] was over 30 µM; in data set [2], 120 nM; in data set [3] it was over 30 µM.

Molecule `C[C@H](NC(=O)c1cc(F)cc2cc(-c3ccc(Cl)cc3)oc12)C(=O)O` registered an IC50 in data set [2] of 4440 nM.

As to `O=C(NC1(C(=O)O)Cc2ccccc2C1)c1cc(F)cc2cc(-c3ccc(Cl)cc3)oc12`, the IC50 in [1] was over 30 µM; in data set [2], 115 nM; in data set [3], over 30 µM.

In [7], `CC(C)C[C@H](N)C(=O)Nc1ccc2c(c1)Oc1cc(NC(=O)[C@H](N)CCC(N)=O)ccc1C21OC(=O)c2ccccc21` (some centres not stated) registered a Ki of 335 µM.

For `CC(C)(NC(=O)c1cccc2c(Br)c(-c3ccc(Cl)cc3)oc12)C(=O)O`, the IC50 was over 30 µM in data set [1], 1760 nM in data set [2] and over 30 µM in [3].

`CC(C)C[C@H](N)C(=O)Nc1ccc2c(c1)Oc1cc(NC(=O)[C@@H](CCC(N)=O)N[C@@H](C)C(=O)N[C@@H](Cc3ccccc3)C(=O)N[C@@H](CCCCN)C(=O)N[C@@H](C)C(=O)N[C@@H](CCCNC(=N)N)C(=O)N[C@@H](CCCCN)C(=O)N[C@@H](Cc3ccccc3)C(=O)O)ccc1C21OC(=O)c2ccccc21` (some centres not stated): in data set [8], the Ki is 563 µM.

As for `CC(C)(NC(=O)c1cc(F)cc2cc(-c3ccc(Cl)cc3)oc12)C(N)=O`, the concentration for half-maximal inhibition (IC50) in data set [2] is over 10000 nM.

Regarding `CCC(C)(NC(=O)c1cc(F)cc2cc(-c3ccc(Cl)cc3)oc12)C(=O)O` (configuration not stated), the IC50 is over 30 µM in data set [9]; over 30 µM in data set [1]; 377 nM in data set [2]; over 30 µM in data set [10]; over 30 µM in data set [3]. For the same molecule, the microsomal CLint in data set [11] is under 20 µL/min/mg; in data set [13], 32 µL/min/mg; in [14], 31 µL/min/mg. Besides, the ΔTm in data set [4] was 0.82 °C. Moreover, in data set [12], the CLH came out at 0.25 mL/h/10^6 cells. In addition, in [5], the Papp A→B stood at 8.5 ×10⁻⁶ cm/s.

Regarding `CN(C(=O)c1cc(F)cc2cc(-c3ccc(Cl)cc3)oc12)C(C)(C)C(=O)O`, the IC50 in data set [2] stood at 1970 nM.

`CC(C)(NC(=O)c1cccc2cc(-c3ccc(Cl)cc3)oc12)C(=O)O`: the values for the concentration for half-maximal inhibition (IC50) in data set [1], in data set [2] and in [3] were over 30 µM, 1030 nM and over 30 µM, respectively.

The molecule `COC(=O)C(C)(C)NC(=O)c1cc(F)cc2cc(-c3ccc(Cl)cc3)oc12` yielded an IC50 in [2] of over 10000 nM.

Take `O=C(NC1(C(=O)O)CCCC1)c1cc(F)cc2cc(-c3ccc(Cl)cc3)oc12`: the values for the IC50 in data set [1], in data set [2] and in data set [3] were over 30 µM, 99 nM and over 30 µM, respectively.

Consider `CC(C)(NC(=O)c1cc(F)cc2cc(-c3ccc(Cl)cc3)oc12)C(=O)O`, for which the IC50 in data set [9] was over 30 µM; in data set [1], over 30 µM; in [2], 698 nM; in data set [10], over 30 µM; in data set [3], over 30 µM. Moreover, the results for the microsomal CLint in data set [11], in data set [13] and in data set [14] were 25 µL/min/mg, 33 µL/min/mg and under 20 µL/min/mg, respectively. For the same molecule, in data set [4], the thermal shift (ΔTm) is 0.94 °C. Besides, the Papp A→B in data set [5] was 10.8 ×10⁻⁶ cm/s.

For the molecule `CC(C)(NC(=O)c1cc(F)cc2cc(-c3ccc(Cl)cc3)oc12)c1nnn[nH]1`, it took 275 nM to reach half-maximal inhibition in [2] (IC50).

With `O=C(N[C@H](Cc1ccccc1)C(=O)O)c1cc(F)cc2cc(-c3ccc(Cl)cc3)oc12`, the IC50 in data set [1] is over 30 µM; in data set [2], 262 nM; in [3], over 30 µM.

In the case of `O=C(NC1(C(=O)O)CC1)c1cc(F)cc2cc(-c3ccc(Cl)cc3)oc12`, the IC50 in data set [1] is over 30 µM; in data set [2] it was 1120 nM; in data set [3], over 30 µM.

B1: Endoplasmic reticulum aminopeptidase 1 (Homo sapiens), Q9NZ08 (protein)
chain: MVFLPLKWSLATMSFLLSSLLALLTVSTPSWCQSTEASPKRSDGTPFPWNKIRLPEYVIPVHYDLLIHANLTTLTFWGTTKVEITASQPTSTIILHSHHLQISRATLRKGAGERLSEEPLQVLEHPRQEQIALLAPEPLLVGLPYTVVIHYAGNLSETFHGFYKSTYRTKEGELRILASTQFEPTAARMAFPCFDEPAFKASFSIKIRREPRHLAISNMPLVKSVTVAEGLIEDHFDVTVKMSTYLVAFIISDFESVSKITKSGVKVSVYAVPDKINQADYALDAAVTLLEFYEDYFSIPYPLPKQDLAAIPDFQSGAMENWGLTTYRESALLFDAEKSSASSKLGITMTVAHELAHQWFGNLVTMEWWNDLWLNEGFAKFMEFVSVSVTHPELKVGDYFFGKCFDAMEVDALNSSHPVSTPVENPAQIREMFDDVSYDKGACILNMLREYLSADAFKSGIVQYLQKHSYKNTKNEDLWDSMASICPTDGVKGMDGFCSRSQHSSSSSHWHQEGVDVKTMMNTWTLQKGFPLITITVRGRNVHMKQEHYMKGSDGAPDTGYLWHVPLTFITSKSDMVHRFLLKTKTDVLILPEEVEWIKFNVGMNGYYIVHYEDDGWDSLTGLLKGTHTAVSSNDRASLINNAFQLVSIGKLSIEKALDLSLYLKHETEIMPVFQGLNELIPMYKLMEKRDMNEVETQFKAFLIRLLRDLIDKQTWTDEGSVSERMLRSQLLLLACVHNYQPCVQRAEGYFRKWKESNGNLSLPVDVTLAVFAVGAQSTEGWDFLYSKYQFSLSSTEKSQIEFALCRTQNKEKLQWLLDESFKGDKIKTQEFPQILTLIGRNPVGYPLAWQFLRKNWNKLVQKFELGSSSIAHMVMGTTNQFSTRTRLEEVKGFFSSLKENGSQLRCVQQTIETIEENIGWMDKNFDKIRVWLQSEKLERM
Turning to B1, the Km in [15] is 2 µM; in data set [16] it was 3.7 µM; in data set [17], 3.1 µM; in [18], 31.8 µM.

What is called IC50 is the concentration needed to halve the response being measured. A low value points to greater potency. The term ΔTm denotes the shift of the melting midpoint relative to a reference. By Ki is commonly meant a measure of affinity in units of concentration, obtained from inhibition or displacement. A low value points to a stronger hold on the target. A word on the Km: it is the substrate concentration at which the rate is half of its maximum.
